Data published in patent US10538520B2, “Benzamide and nicotinamide compounds and methods of using same” (OncoTartis Inc., priority 2013, dated 2020).

Experiments:
[1] = tested on: MV4-11 cells; assay: Systemic (disseminated) MV4-11 model of AML in SCID mice, survival; format: in vivo; settings: 6 days per week, days 4-58, IV MV4-11 (FIG. 3)
Procedure: FIG. 3. Example of survival of SCID mice inoculated via IV route with MV4-11 cells and treated via oral gavage with vehicle control, TT-01901 at 100 mg/kg and TT-03586 at 50 mg/kg 6 days per week on days 4-58. Mice were sacrificed according to IACUC regulations after losing more than 20% of body weight or becoming moribund and paralyzed.
(§1) Efficacy of compounds was tested in two types of xenograft models of leukemia: subcutaneous (SC) (development of tumors after SC inoculation of cells) and systemic and disseminated (development of tumors on different organs after intravenous inoculation of cells). MV4-11 cells (ATCC CRL-9591) of acute myelomonocytic leukemia (AML) were used.
In this model leukemia cells either from patient of from cell lines are administered intravenously into mice and leukemia cells are engrafted into blood and blood-forming organs (bone marrow, thymus, spleen).
In systemic model of AML SCID mice were irradiated with 3 Gy and inoculated intravenously with MV4-11 cells 24 h after irradiation. Mice were treated with vehicle control, TT-01901 and TT-03586 during days 4-58 (FIG. 3). 30 days after cells implantation mice treated with vehicle were gradually becoming sick, scruffy and were losing weight. […] The ratio of survival of treated mice versus survival of control mice in percent (T/C) was calculated using formula: T/C %=average survival time for treated mice/average survival time for control mice*100. Increase in the survival (IS) was calculated using formula: IS=(average survival time of treated mice−average survival time of control mice)/average survival time of control mice*100. […] The corresponding increase in survival was 35% and 48%.

[2] = tested on: U-937; assay: Cytotoxicity towards U-937 cell line; format: cell-based; settings: Homo sapiens
Procedure: (§2) In various embodiments, the compounds of the disclosure are those in which show IC50 values in cytotoxicity experiments towards cells lines MV4-11 and U937 of >20 μM, 10-20 μM, 5-10 μM, 1-5 μM, or <1 μM.
(§3) The IC50 is divided into 5 categories: A<1 μM, B 1-5 μM, C 5-10 μM, D 10-20 μM, and E>20 μM.

[3] = tested on: MV4-11; assay: Cytotoxicity towards MV4-11 cell line; format: cell-based; settings: Homo sapiens
Procedure: as §2, §3

[4] = tested on: MV4-11 cells; assay: Subcutaneous MV4-11 xenograft model of AML in SCID mice, tumor growth; format: in vivo; settings: for maximum suppression of tumor growth (STG %): 6 days per week; for effect on tumor growth: SCID mice inoculated SC with MV4-11 cells (FIGS. 1 and 2)
Procedure: FIG. 1. Example of growth of tumors in MV4-11 xenograft model of AML in SCID mice treated with vehicle control and TT-03197 at 10 mg/kg and 40 mg/kg administered intraperitoneally. Mice were treated 6 days per week as indicated on the figure. Results are Mean±SE (n=14-16).
FIG. 2. Example of growth of tumors in MV4-11 xenograft model of AML in SCID mice treated with vehicle control and TT-03203 at 10 mg/kg and 25 mg/kg administered orally. Mice were treated 6 days per weeks as indicated on the figure. Results are Mean±SE (n=17-20)
as §1
The maximum suppression of tumor growth (calculated using formula: STG %=(volume control-volume treated)/volume control*100) was 28% for mice treated with 10 mg/kg of TT-03197 and 55% for mice treated with 40 mg/kg of […] (FIG. 1). For TT-03203 the maximum STG was 27% for mice treated PO with 10 mg/kg of TT-03203 and 46% for mice treated with 25 mg/kg of TT-03203 (FIG. 2).

Compound: O=C(NCCCn1ccnc1)c1ccc(-n2cccn2)c(C#Cc2ccccc2)c1 [TT-01901]
- increase in survival (IS) ([1]; 100 mg/kg oral gavage): 35%
- survival of treated mice versus control mice (T/C %) ([1]; 100 mg/kg oral gavage): 135%
- IC50 [2]: < 1000 nM
- IC50 [3]: < 1000 nM

Compound: O=C(NCCCc1cn[nH]c1)c1ccc(-n2cccn2)c(C#Cc2ccc(F)cc2)c1 [TT-03197]
- IC50 [2]: < 1000 nM
- IC50 [3]: < 1000 nM
- maximum suppression of tumor growth (STG %) ([4]; 10 mg/kg, intraperitoneally, SC MV4-11 xenograft (FIG. 1)): 28%
- effect on tumor growth [4]: dose-dependent reduction of tumor growth

Compound: O=C(NCCCc1cn[nH]c1)c1ccc(-n2cccn2)c(C#Cc2ccc(Cl)cc2)c1 [TT-03203]
- IC50 [2]: < 1000 nM
- IC50 [3]: < 1000 nM
- maximum suppression of tumor growth (STG %) ([4]; 10 mg/kg PO, SC MV4-11 xenograft (FIG. 2)): 27%
- maximum suppression of tumor growth (STG %) ([4]; 25 mg/kg PO, SC MV4-11 xenograft (FIG. 2)): 46%
- maximum suppression of tumor growth (STG %) ([4]; 40 mg/kg, intraperitoneally, SC MV4-11 xenograft (FIG. 1)): 55%
- effect on tumor growth [4]: dose-dependent reduction of tumor growth

Compound: O=C(NCCCc1cn[nH]c1)c1ccc(N2CCOCC2)c(C#Cc2ccc(F)cc2)c1 [TT-03586]
- increase in survival (IS) ([1]; 50 mg/kg oral gavage): 48%
- survival of treated mice versus control mice (T/C %) ([1]; 50 mg/kg oral gavage): 148%
- IC50 [2]: < 1000 nM
- IC50 [3]: < 1000 nM

Compound: O=C(NCCCc1cn[nH]c1)c1ccc(N2CCOC(CN3CCCCC3)C2)c(C#Cc2ccc(F)cc2)c1 (centres unmarked) [TT-03669]
- IC50 [2]: < 1000 nM
- IC50 [3]: < 1000 nM

Compound: C[C@@H]1CN(c2ccc(C(=O)NCCCc3cn[nH]c3)cc2C#Cc2ccc(F)cc2)C[C@H](C)O1 [TT-03670]
- IC50 [2]: < 1000 nM
- IC50 [3]: < 1000 nM

Compound: O=C1CN(c2ccc(C(=O)NCCCc3cn[nH]c3)cc2C#Cc2ccc(F)cc2)CCN1 [TT-03671]
- IC50 [2]: < 1000 nM
- IC50 [3]: < 1000 nM

Compound: CC1(C)CCCN(c2ccc(C(=O)NCCCc3cn[nH]c3)cc2C#Cc2ccc(F)cc2)C1 [TT-03676]
- IC50 [2]: < 1000 nM
- IC50 [3]: < 1000 nM

Compound: O=C(NC/C=C/c1cn[nH]c1)c1ccc(N2CCCC2)c(C#Cc2ccc(F)cc2)c1 [TT-03717]
- IC50 [2]: < 1000 nM
- IC50 [3]: < 1000 nM

Compound: C[C@@H]1CN(c2ccc(C(=O)NC/C=C/c3cn[nH]c3)cc2C#Cc2ccc(F)cc2)C[C@H](C)O1 [TT-03718]
- IC50 [2]: < 1000 nM
- IC50 [3]: < 1000 nM

Compound: COc1ccc(C#Cc2cc(C(=O)NCCCc3cn[nH]c3)ccc2N2CCOCC2)cn1 [TT-03720]
- IC50 [2]: < 1000 nM
- IC50 [3]: < 1000 nM

Compound: NCCOCCOCCOCCN1CCN(c2ccc(C(=O)NCCCn3ccnc3)cc2C#Cc2ccc(F)cc2)CC1 [TT-03725]
- IC50 [2]: < 1000 nM
- IC50 [3]: < 1000 nM

Compound: C[C@@H]1CN(c2ccc(C(=O)NCCCn3ccnc3)cc2C#Cc2ccc(F)cc2)C[C@H](C)O1 [TT-03727]
- IC50 [2]: < 1000 nM
- IC50 [3]: < 1000 nM

Compound: C[C@@H]1CN(c2ccc(C(=O)N3CC[C@H](O)[C@@H](n4ccnc4)CC3)cc2C#Cc2ccc(F)cc2)C[C@H](C)O1 [TT-03732]
- IC50 [2]: 1000 to 5000 nM
- IC50 [3]: < 1000 nM

Compound: C[C@@H]1CN(c2ccc(C(=O)N[C@@H]3CC[C@@H](n4ccnc4)[C@@H]3O)cc2C#Cc2ccc(F)cc2)C[C@H](C)O1 [TT-03733]
- IC50 [2]: 1000 to 5000 nM
- IC50 [3]: < 1000 nM

Compound: Cc1nccn1CCCNC(=O)c1ccc(N2CCN(CCOCCOCCOCCN)CC2)c(C#Cc2ccc(F)cc2)c1 [TT-03749]
- IC50 [2]: 10000 to 20000 nM
- IC50 [3]: 1000 to 5000 nM

Compound: C[C@@H]1CN(c2ncc(C(=O)NCCCc3cn[nH]c3)cc2C#Cc2ccc(F)cc2)C[C@H](C)O1 [TT-03750]
- IC50 [2]: < 1000 nM
- IC50 [3]: < 1000 nM

Compound: C[C@@H]1CN(c2ncc(C(=O)NC/C=C/c3cn[nH]c3)cc2C#Cc2ccc(F)cc2)C[C@H](C)O1 [TT-03751]
- IC50 [2]: < 1000 nM
- IC50 [3]: < 1000 nM

Compound: C[C@@H]1CN(c2ncc(C(=O)NC/C=C/c3cn[nH]c3)cc2C#Cc2ccc(Cl)cc2)C[C@H](C)O1 [TT-03752]
- IC50 [2]: < 1000 nM
- IC50 [3]: < 1000 nM

Compound: C[C@@H]1CN(c2ncc(C(=O)NCCCc3cn[nH]c3)cc2C#Cc2ccc(Cl)cc2)C[C@H](C)O1 [TT-03753]
- IC50 [2]: < 1000 nM
- IC50 [3]: < 1000 nM

Compound: C[C@@H]1CN(c2ccc(C(=O)NCCCc3cn[nH]c3)cc2C#Cc2ccc(Cl)cc2)C[C@H](C)O1 [TT-03754]
- IC50 [2]: < 1000 nM
- IC50 [3]: < 1000 nM

Compound: O=C1CC2CCC(CN1)N2c1ncc(C(=O)NCCCc2cn[nH]c2)cc1C#Cc1ccc(F)cc1 (centres unmarked) [TT-03765]
- IC50 [2]: < 1000 nM
- IC50 [3]: < 1000 nM

Compound: O=C(NCCCc1cn[nH]c1)c1ccc(-c2cc[n+]([O-])cc2)c(C#Cc2ccc(F)cc2)c1 [TT-03773]
- IC50 [2]: < 1000 nM
- IC50 [3]: < 1000 nM

Compound: O=C(NCC(O)Cc1cn[nH]c1)c1cnc(N2CCOCC2)c(C#Cc2ccc(F)cc2)c1 (centres unmarked) [TT-03774]
- IC50 [2]: 1000 to 5000 nM
- IC50 [3]: < 1000 nM

Compound: O=C(NCCCc1cn[nH]c1)c1cnc(N2CC[S+]([O-])CC2)c(C#Cc2ccc(F)cc2)c1 [TT-03782]
- IC50 [2]: < 1000 nM
- IC50 [3]: < 1000 nM

Compound: O=C(NCCCc1cn[nH]c1)c1cnc(N2CCS(=O)(=O)CC2)c(C#Cc2ccc(F)cc2)c1 [TT-03783]
- IC50 [2]: < 1000 nM
- IC50 [3]: < 1000 nM
